Drawing on patent US10144706B2 (BRISTOL-MYERS SQUIBB COMPANY, priority 2016, dated 2018), this text covers IC50 for 25 compounds.

Molecules are shown by their SMILES. Read-outs that look alike come from different tables or passages of the source. Bounds are passed on as bounds.

The test concerns the target T1, PD-1/PD-L1 interaction (PD-1-Ig / PD-L1-His) (Homo sapiens, UniProt Q9NZQ7).
T1 construct: hPDL1(18-239)-TVMV-His; TVMV protease site linker (C); made in house; host or cells: HEK293T
Description: PD-1/PD-L1 Homogenous Time-Resolved Fluorescence (HTRF) binding assay. As to conditions: PD-L1-His 10 nM, PD-1-Ig 20 nM, read-out: Range or IC50. Put shortly:
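Human PD-L1-His (10 nM final) was pre-incubated with inhibitor for 15 min, then PD-1-Ig (20 nM final) was added for a further 15 min in dPBS with 0.1% BSA and 0.05% Tween-20. Binding was detected by HTRF using Eu-cryptate anti-Ig (1 nM) and APC anti-His (20 nM).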

T1 sequence (Q9NZQ7 with tags, fused parts or gaps): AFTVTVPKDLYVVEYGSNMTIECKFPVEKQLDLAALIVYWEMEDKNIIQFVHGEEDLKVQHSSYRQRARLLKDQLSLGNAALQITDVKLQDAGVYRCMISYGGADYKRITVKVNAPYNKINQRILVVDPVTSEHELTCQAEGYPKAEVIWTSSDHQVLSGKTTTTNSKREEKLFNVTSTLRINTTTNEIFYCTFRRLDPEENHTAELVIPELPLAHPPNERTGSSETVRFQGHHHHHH

As to `Cc1c(COc2cc(OCc3cncc(C#N)c3)c(CN3CC[C@@H](O)C3)cc2Cl)cccc1-c1cccc(COc2cc(OCc3cncc(C#N)c3)c(CN3CC[C@@H](O)C3)cc2Cl)c1C` [Example 2125, 5,5′-((((((2,2′-dimethyl-[1,1′-biphenyl]-3,3′-diyl)bis(methylene))bis(oxy))bis(4-chloro-6-(((R)-3-hydroxypyrrolidin-1-yl)methyl)-3,1-phenylene))bis(oxy))bis(methylene))dinicotinonitrile], the IC50 (IC50 range class) was 0.04 to 20 nM.

Turning to `Cc1c(COc2cc(OCc3cncc(C#N)c3)c(CO)cc2Cl)cccc1-c1cccc(COc2cc(OCc3cncc(C#N)c3)c(CN3CC[C@@H](O)C3)cc2Cl)c1C` [Example 2126, (R)-5-((4-chloro-5-((3′-((2-chloro-5-((5-cyanopyridin-3-yl)methoxy)-4-((3-hydroxypyrrolidin-1-yl)methyl)phenoxy)methyl)-2,2′-dimethyl-[1,1′-biphenyl]-3-yl)methoxy)-2-(hydroxymethyl)phenoxy)methyl)nicotinonitrile], the IC50 (IC50 range class) fell in the range of 20.1 to 90 nM.

`Cc1c(COc2cc(OCc3cncc(C#N)c3)c(CNC[C@H](O)CO)cc2Cl)cccc1-c1cccc(COc2cc(OCc3cncc(C#N)c3)c(CNC[C@H](O)CO)cc2Cl)c1C` [Example 2127, 5,5′-((((((2,2′-dimethyl-[1,1′-biphenyl]-3,3′-diyl)bis(methylene))bis(oxy))bis(4-chloro-6-((((S)-2,3-dihydroxypropyl)amino)methyl)-3,1-phenylene))bis(oxy))bis(methylene))dinicotinonitrile]: the IC50 (IC50 range class) was in the range of 0.04 to 20 nM.

As to `Cc1c(COc2cc(OCc3cncc(C#N)c3)c(CNC(CO)CO)cc2Cl)cccc1-c1cccc(COc2cc(OCc3cncc(C#N)c3)c(CNC(CO)CO)cc2Cl)c1C` [Example 2128, 5,5′-((((((2,2′-dimethyl-[1,1′-biphenyl]-3,3′-diyl)bis(methylene))bis(oxy))bis(4-chloro-6-(((1,3-dihydroxypropan-2-yl)amino)methyl)-3,1-phenylene))bis(oxy))bis(methylene))dinicotinonitrile], the IC50 (IC50 range class) lay in the range of 0.04 to 20 nM.

As for `Cc1c(COc2cc(OCc3cncc(C#N)c3)c(CO)cc2Cl)cccc1-c1cccc(COc2cc(OCc3cncc(C#N)c3)c(CNC(CO)CO)cc2Cl)c1C` [Example 2129, 5-((4-chloro-5-((3′-((2-chloro-5-((5-cyanopyridin-3-yl)methoxy)-4-(((1,3-dihydroxypropan-2-yl)amino)methyl)phenoxy)methyl)-2,2′-dimethyl-[1,1′-biphenyl]-3-yl)methoxy)-2-(hydroxymethyl)phenoxy)methyl)nicotinonitrile], the IC50 (IC50 range class) was in the range of 90.1 to 1000 nM.

On to `Cc1c(COc2cc(OCc3cncc(C#N)c3)c(CN(C[C@H](O)CO)C(CO)CO)cc2Cl)cccc1-c1cccc(COc2cc(OCc3cncc(C#N)c3)c(CN(C[C@H](O)CO)C(CO)CO)cc2Cl)c1C` [Example 2131, 5,5′-((((((2,2′-dimethyl-[1,1′-biphenyl]-3,3′-diyl)bis(methylene))bis(oxy))bis(4-chloro-6-(((1,3-dihydroxypropan-2-yl)((S)-2,3-dihydroxypropyl)amino)methyl)-3,1-phenylene))bis(oxy))bis(methylene))dinicotinonitrile], for which the IC50 (IC50 range class) lay within 0.04 to 20 nM.

In the case of `Cc1c(OCCCNC2C[C@H](CO)[C@@H](O)[C@H]2O)cccc1-c1cccc(OCCCN[C@@H]2C[C@H](CO)[C@@H](O)[C@H]2O)c1C` (stereo partly drawn) [Example 2132, (1R,2S,5R)-3-((3-((3′-(3-(((1R,2S,3R,4R)-2,3-dihydroxy-4-(hydroxymethyl)cyclopentyl)amino)propoxy)-2,2′-dimethyl-[1,1′-biphenyl]-3-yl)oxy)propyl)amino)-5-(hydroxymethyl)cyclopentane-1,2-diol], where the note is “IC50 range class”, the IC50 lay within 0.04 to 20 nM.

Regarding `Cc1c(COc2cc(OCc3cncc(C#N)c3)c(CN3C(=O)OCC3CO)cc2Cl)cccc1-c1cccc(COc2cc(OCc3cncc(C#N)c3)c(CN3C(=O)OCC3CO)cc2Cl)c1C` (stereo not shown) [Example 2133, 5,5′-((((((2,2′-dimethyl-[1,1′-biphenyl]-3,3′-diyl)bis(methylene))bis(oxy))bis(4-chloro-6-((4-(hydroxymethyl)-2-oxooxazolidin-3-yl)methyl)-3,1-phenylene))bis(oxy))bis(methylene))dinicotinonitrile], the IC50 (IC50 range class) fell in the range of 90.1 to 1000 nM.

`NCCCOc1cccc(-c2cccc(OCCCN)c2Cl)c1Cl` [Example 2134, 3,3′-((2,2′-dichloro-[1,1′-biphenyl]-3,3′-diyl)bis(oxy))bis(propan-1-amine)]: the IC50 (IC50 range class) was in the range of 90.1 to 1000 nM.

In the case of `O=C(NCCCOc1cccc(-c2cccc(OCCCNC(=O)C(O)CO)c2Cl)c1Cl)C(O)CO` (stereo not shown) [Example 2135, N,N′-(((2,2′-dichloro-[1,1′-biphenyl]-3,3′-diyl)bis(oxy))bis(propane-3,1-diyl))bis(2,3-dihydroxypropanamide)], the IC50 (IC50 range class) fell in the range of 1000 to 10000 nM.

As to `O=C(O)C[C@@H](O)C(=O)NCCCOc1cccc(-c2cccc(OCCCNC(=O)[C@H](O)CC(=O)O)c2Cl)c1Cl` [Example 2136, (3R,3′R)-4,4′-((((2,2′-dichloro-[1,1′-biphenyl]-3,3′-diyl)bis(oxy))bis(propane-3,1-diyl))bis(azanediyl))bis(3-hydroxy-4-oxobutanoic acid)], the IC50 (numeric IC50) was 3450 nM.

`Cc1c(OCCCN2CC[C@@H](O)C2)cccc1-c1cccc(OCCCN2CC[C@@H](O)C2)c1C` [Example 3001, (3R,3′R)-1,1′-(((2,2′-dimethyl-[1,1′-biphenyl]-3,3′-diyl)bis(oxy))bis(propane-3,1-diyl))bis(pyrrolidin-3-ol)]: the concentration for half-maximal inhibition (IC50) (IC50 range class) is 0.04 to 20 nM.

On to `Cc1c(OCCCCN2CC[C@@H](O)C2)cccc1-c1cccc(OCCCN2CC[C@@H](O)C2)c1C` [Example 3002, (R)-1-(3-((3′-(4-((R)-3-hydroxypyrrolidin-1-yl)butoxy)-2,2′-dimethyl-[1,1′-biphenyl]-3-yl)oxy)propyl) pyrrolidin-3-ol], for which the IC50 (IC50 range class) is 0.04 to 20 nM.

Regarding `Cc1c(OCCCCCN2CC[C@@H](O)C2)cccc1-c1cccc(OCCCN2CC[C@@H](O)C2)c1C` [Example 3003, (R)-1-(3-((3′-((5-((R)-3-hydroxypyrrolidin-1-yl)pentyl)oxy)-2,2′-dimethyl-[1,1′-biphenyl]-3-yl)oxy)propyl)pyrrolidin-3-ol], the IC50 (IC50 range class) fell in the range of 0.04 to 20 nM.

On to `Cc1cc(OCCCN2CC[C@@H](O)C2)ccc1-c1cccc(OCCCCN2CC[C@@H](O)C2)c1C` [Example 3004, (R)-1-(3-((3′-(4-((R)-3-hydroxypyrrolidin-1-yl)butoxy)-2,2′-dimethyl-[1,1′-biphenyl]-4-yl)oxy)propyl) pyrrolidin-3-ol], for which, under “IC50 range class”, the IC50 fell in the range of 1000 to 10000 nM.

`Cc1cc(OCCCN2CC[C@@H](O)C2)ccc1-c1cccc(OCCCCCN2CC[C@@H](O)C2)c1C` [Example 3005, (R)-1-(3-((3′-((5-((R)-3-hydroxypyrrolidin-1-yl)pentyl)oxy)-2,2′-dimethyl-[1,1′-biphenyl]-4-yl)oxy)propyl)pyrrolidin-3-ol]: the IC50 (IC50 range class) was 1000 to 10000 nM.

As for `Cc1cc(OCCCN2CC[C@@H](O)C2)ccc1-c1cccc(OCCCN2CC[C@@H](O)C2)c1C` [Example 3006, (3R,3′R)-1,1′-(((2,2′-dimethyl-[1,1′-biphenyl]-3,4′-diyl)bis(oxy))bis(propane-3,1-diyl))bis(pyrrolidin-3-ol)], the concentration for half-maximal inhibition (IC50) (IC50 range class) fell in the range of 1000 to 10000 nM.

On to `Cc1c(OCCCN(C)C)cccc1-c1cccc(OCCCN2CC[C@@H](O)C2)c1C` [Example 3007, (R)-1-(3-((3′-(3-(dimethylamino)propoxy)-2,2′-dimethyl-[1,1′-biphenyl]-3-yl)oxy)propyl)pyrrolidin-3-ol], for which the IC50 (IC50 range class) is 0.04 to 20 nM.

As to `Cc1c(OCCCN2CC[C@@H](O)C2)cccc1-c1cccc(C(=O)NCCCCN2CC[C@@H](O)C2)c1C` [Example 3008, N-(4-((R)-3-hydroxypyrrolidin-1-yl)butyl)-3′-(3-((R)-3-hydroxypyrrolidin-1-yl)propoxy)-2,2′-dimethyl-[1,1′-biphenyl]-3-carboxamide], the IC50 (IC50 range class) was in the range of 1000 to 10000 nM.

With `Cc1c(OCCCN2CC[C@@H](O)C2)cccc1-c1cccc(C(=O)NCCCN2CC[C@@H](O)C2)c1C` [Example 3009, 3′-(3-((R)-3-hydroxypyrrolidin-1-yl)propoxy)-N-(3-((R)-3-hydroxypyrrolidin-1-yl)propyl)-2,2′-dimethyl-[1,1′-biphenyl]-3-carboxamide], the IC50 (IC50 range class) fell in the range of 1000 to 10000 nM.

Turning to `Cc1c(OCCCN2CC[C@@H](O)C2)cccc1-c1cccc(S(=O)(=O)NCCCN(C)C)c1C` [Example 3010, (R)—N-(3-(dimethylamino)propyl)-3′-(3-(3-hydroxypyrrolidin-1-yl)propoxy)-2,2′-dimethyl-[1,1′-biphenyl]-3-sulfonamide], the IC50 (numeric IC50) came out at 10000 nM.

Turning to `Cc1c(OCCCN2CC[C@@H](O)C2)cccc1-c1cccc(OCc2cncc(C#N)c2)c1C` [Example 3011], the IC50 (IC50 range class) fell in the range of 20.1 to 90 nM.

Take `Cc1cc(OCCCN2CC[C@@H](O)C2)ccc1-c1ccc(OCCCN2CC[C@@H](O)C2)cc1C` [Example 3012, (3R,3′R)-1,1′-(((2,2′-dimethyl-[1,1′-biphenyl]-4,4′-diyl)bis(oxy))bis(propane-3,1-diyl))bis(pyrrolidin-3-ol)]: under “IC50 range class”, the IC50 was more than 10000 nM.

Consider `Cc1c(NC(=O)CCN2CC[C@@H](O)C2)cccc1-c1cccc(OCCCN2CC[C@@H](O)C2)c1C` [Example 3013, 3-((R)-3-hydroxypyrrolidin-1-yl)-N-(3′-(3-((R)-3-hydroxypyrrolidin-1-yl)propoxy)-2,2′-dimethyl-[1,1′-biphenyl]-3-yl)propanamide], for which, where the note is “IC50 range class”, the IC50 fell in the range of 1000 to 10000 nM.

Turning to `Cc1c(NC(=O)NCCC(=O)O)cccc1-c1cccc(OCCCN2CC[C@@H](O)C2)c1C` [Example 3014, (R)-3-(3-(3′-(3-(3-hydroxypyrrolidin-1-yl)propoxy)-2,2′-dimethyl-[1,1′-biphenyl]-3-yl)ureido)propanoic acid], the IC50 (IC50 range class) was more than 10000 nM.
